Results: patent US20180334447A1, “2,3,4,5-TETRAHYDROPYRIDIN-6-AMINE DERIVATIVES” (JANSSEN PHARMACEUTICA NV, priority 2015, published 2018)

Experiments:
[1] = biological target: T1, recombinant BACE1 protein (Homo sapiens, UniProt P56817); experiment: BACE1 biochemical FRET based assay - Method 1; details: BACE1, 120 minutes at room temperature, pH 5.0; read-out: Biochemical FRET based assay - Method 1 pIC50 (converted)
T1 construct: recombinant BACE1 protein in a final concentration of 1 μg/ml
Description: (§1) This assay is a Fluorescence Resonance Energy Transfer Assay (FRET) based assay. The substrate for this assay is an APP derived 13 amino acids peptide that contains the ‘Swedish’ Lys-Met/Asn-Leu mutation of the amyloid precursor protein (APP) beta-secretase cleavage site. This substrate also contains two fluorophores: (7-methoxycoumarin-4-yl) acetic acid (Mca) is a fluorescent donor with excitation wavelength at 320 nm and emission at 405 nm and 2,4-Dinitrophenyl (Dnp) is a proprietary quencher acceptor. […] Upon cleavage by BACE1, the fluorophore Mca is separated from the quenching group Dnp, restoring the full fluorescence yield of the donor. The increase in fluorescence is linearly related to the rate of proteolysis.
Briefly in a 384-well format recombinant BACE1 protein in a final concentration of 1 μg/ml is incubated for 120 minutes at room temperature with 10 μm substrate in incubation buffer (40 mM Citrate buffer pH 5.0, 0.04% PEG, 4% DMSO) in the absence or presence of compound. Next the amount of proteolysis is directly measured by fluorescence measurement at T=0 and T=120 (excitation at 320 nm and emission at 405 nm). Results are expressed in RFU (Relative Fluorescence Units), as difference between T120 and T0.
(§2) A best-fit curve is fitted by a minimum sum of squares method to the plot of % Controlmin versus compound concentration. From this an IC50 value (inhibitory concentration causing 50% inhibition of activity) can be obtained.

[2] = tested on: Abetatotal in human neuroblastoma SKNBE2 cells; experiment: Cellular αLisa assay in SKNBE2 cells, Abetatotal; format: cell-based; details: SKNBE2 cells expressing hAPP695, incubated for 18 hours; for IC50: Homo sapiens, SKNBE2, 18 h, read-out: Cellular αLisa assay in SKNBE2 cells Abetatotal pIC50 (converted)
[3] = tested on: Abeta 1-37, Abeta 1-38, Abeta 1-40 and Abeta 1-42 in CSF; experiment: Pharmacology in the Beagle dog: beta-amyloid profile in cerebrospinal fluid (CSF) after a single dose; format: in vivo; details: for inhibition in vivo at 0.31 mg/kg / inhibition in vivo at 0.16 mg/kg / inhibition in vivo at 0.63 mg/kg / inhibition in vivo at 1.25 mg/kg / inhibition in vivo at 0.08 mg/kg: Canis lupus familiaris, 8 h post dosing, read-out: % Decrease in Abeta 1-42 at 8 h post dosing compared to own baseline
Procedure: Test compounds were tested to evaluate the effect on the beta-amyloid profile in cerebrospinal fluid (CSF) of dogs after a single dose, in combination with pharmacokinetic (PK) follow up and limited safety evaluation.
For each of compound 20, 21, 22 or 41, four beagle dogs (2 males, 2 females) were dosed with vehicle (1 ml/kg of an aqueous solution of 20% cyclodextrin) and 12 beagle dogs (2 males and 2 females per dosage group) were dosed with test compounds as follows:
In the case of compounds 39, 33 and 31, two beagle dogs (1 male, 1 female) were dosed with vehicle (1 ml/kg of an aqueous solution of 20% cyclodextrin) and 4 beagle dogs (2 males and 2 females) were dosed with test compound […] (0.31 mg/kg in 0.31 mg/ml of an aqueous 20% cyclodextrin solution) on an empty stomach.
Eight hours after dosing the animals got access to their regular meal for 30 minutes. Blood was taken for PK follow up (0.5, 1, 2, 4, 8, 25 and 49 hours) and serum samples for biochemistry were taken before and at 8 and 25 h after dosing. The CSF samples were used for measurement of Abeta 1-37, Abeta 1-38, Abeta 1-40 and Abeta 1-42.

[4] = tested on: Abeta 1-42 produced and secreted into the medium of human neuroblastoma SKNBE2 cells; experiment: Cellular αLisa assay in SKNBE2 cells, Abeta 42; format: cell-based; details: SKNBE2 cells expressing hAPP695, incubated for 18 hours; for IC50: Homo sapiens, SKNBE2, 18 h, read-out: Cellular αLisa assay in SKNBE2 cells Abeta 42 pIC50 (converted)
Procedure: In two αLisa assays the levels of Abeta 1-42 produced and secreted into the medium of human neuroblastoma SKNBE2 cells are quantified. The assay is based on the human neuroblastoma SKNBE2 expressing the wild type Amyloid Precursor Protein (hAPP695). The compounds are diluted and added to these cells, incubated for 18 hours and then measurements of Abeta 1-42 are taken. Abeta 1-42 are measured by sandwich αLisa. αLisa is a sandwich assay using biotinylated antibody AbN/25 attached to streptavidin coated beads and antibody cAb42/26 conjugated acceptor beads for the detection of Abeta 1-42 respectively. In the presence of Abeta 1-42, the beads come into close proximity. The excitation of the donor beads provokes the release of singlet oxygen molecules that trigger a cascade of energy transfer in the acceptor beads, resulting in light emission. Light emission is measured after 1 hour incubation (excitation at […] and emission at 615 nm).
as §2

[5] = biological target: T2, recombinant BACE2 protein (Homo sapiens, UniProt Q9Y5Z0); experiment: BACE2 biochemical FRET based assay; details: BACE2, 450 minutes at room temperature, pH 5.0; read-out: Biochemical FRET based assay pIC50 (converted)
T2 construct: recombinant BACE2 protein in a final concentration of 0.4 μg/ml
T2 sequence (Q9Y5Z0 63-518): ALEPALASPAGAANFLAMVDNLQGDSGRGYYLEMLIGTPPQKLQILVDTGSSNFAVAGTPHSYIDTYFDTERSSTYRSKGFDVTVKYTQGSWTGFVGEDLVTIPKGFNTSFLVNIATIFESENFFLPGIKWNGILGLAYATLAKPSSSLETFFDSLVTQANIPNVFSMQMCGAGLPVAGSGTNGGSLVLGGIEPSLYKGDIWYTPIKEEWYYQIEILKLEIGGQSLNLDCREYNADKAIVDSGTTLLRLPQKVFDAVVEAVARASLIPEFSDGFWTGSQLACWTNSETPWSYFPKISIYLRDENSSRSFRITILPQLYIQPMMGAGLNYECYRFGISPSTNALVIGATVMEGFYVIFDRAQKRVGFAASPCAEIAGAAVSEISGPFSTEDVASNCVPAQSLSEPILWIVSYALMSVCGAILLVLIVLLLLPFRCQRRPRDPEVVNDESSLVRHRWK
Description: as §1, with “assay” for “assay is an APP derived 13 amino acids peptide that”, “the beta-secretase,” for “BACE1,”
Briefly in a 384-well format recombinant BACE2 protein in a final concentration of 0.4 μg/ml is incubated for 450 minutes at room temperature with 10 μM substrate in incubation buffer (50 mM Citrate buffer pH 5.0, 0.05% PEG, no DMSO) in the absence or presence of compound. Next the amount of proteolysis is directly measured by fluorescence measurement at T=0 and T=450 (excitation at 320 nm and emission at 405 nm). Results are expressed in RFU (Relative Fluorescence Units), as difference between T450 and T0.
as §2

[6] = single dose 0.31 mg/kg, 25 h post dosing (b)

T1 sequence (P56817 46-501): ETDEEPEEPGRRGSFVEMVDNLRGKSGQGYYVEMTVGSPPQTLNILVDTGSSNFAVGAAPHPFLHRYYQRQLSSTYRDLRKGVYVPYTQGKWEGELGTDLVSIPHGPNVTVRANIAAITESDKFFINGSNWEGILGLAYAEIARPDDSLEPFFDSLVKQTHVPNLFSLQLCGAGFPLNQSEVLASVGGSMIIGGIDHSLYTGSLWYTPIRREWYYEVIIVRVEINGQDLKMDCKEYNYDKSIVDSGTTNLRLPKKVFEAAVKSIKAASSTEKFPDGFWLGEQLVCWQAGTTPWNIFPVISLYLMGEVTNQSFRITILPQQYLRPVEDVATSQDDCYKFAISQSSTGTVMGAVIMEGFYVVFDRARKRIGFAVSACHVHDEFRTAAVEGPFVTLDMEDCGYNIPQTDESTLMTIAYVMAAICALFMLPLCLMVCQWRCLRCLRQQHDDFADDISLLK

Row | SMILES | IC50 [1] [nM] | inhibition in vivo at 0.31 mg/kg ([3]; single dose 0.31 mg/kg) [%] | IC50 [5] [nM] | IC50 [2] [nM] | IC50 [4] [nM] | also measured
1 | CC(C)S(=O)(=O)C1(C)CCC(CF)(c2cc(NC(=O)c3ccc(F)cn3)ccc2F)N=C1N (single isomer, unassigned) [Compound 33] | 4.27 | 34 | 3.55 | – | – | Cellular αLisa assay in SKNBE2 cells Abetatotal pIC50 [2]: 8.37; Cellular αLisa assay in SKNBE2 cells Abeta 42 pIC50 [4]: 8.32
2 | CC(C)S(=O)(=O)C1(C)CCC(CF)(c2cc(NC(=O)c3ccc(F)cn3)ccc2F)N=C1N (single isomer, unassigned) [Compound 34] | 3630 | – | 4270 | – | – | Cellular αLisa assay in SKNBE2 cells Abetatotal pIC50 [2]: 5.72; Cellular αLisa assay in SKNBE2 cells Abeta 42 pIC50 [4]: 5.56
3 | C[C@@]1(S(C)(=O)=O)CC[C@@](CF)(c2cc(NC(=O)c3ccc(F)cn3)ccc2F)N=C1N [Compound 20] | 3.02 | – | 3.02 | 2.57 | 2.51 | inhibition in vivo at 0.16 mg/kg ([3]; single dose 0.16 mg/kg): 54%; inhibition in vivo at 0.63 mg/kg ([3]; single dose 0.63 mg/kg): 75%; inhibition in vivo at 1.25 mg/kg ([3]; single dose 1.25 mg/kg): 77%; % Decrease in Abeta 1-42 at 24 h^(a) or 25 h^(b) post dosing compared to own baseline ([3]; single dose 0.16 mg/kg, 24 h post dosing (a)): 44^(a) %; % Decrease in Abeta 1-42 at 49 h post dosing compared to own baseline ([3]; single dose 0.63 mg/kg): 29%; % Decrease in Abeta 1-42 at 49 h post dosing compared to own baseline ([3]; single dose 1.25 mg/kg): 65%
4 | Cc1cc(C#N)cnc1C(=O)Nc1ccc(F)c([C@]2(CF)CC[C@@](C)(S(C)(=O)=O)C(N)=N2)c1 [Compound 21] | 1.38 | 78 | 5.01 | – | 0.813 | inhibition in vivo at 0.08 mg/kg ([3]; single dose 0.08 mg/kg): 49%; inhibition in vivo at 0.63 mg/kg ([3]; single dose 0.63 mg/kg): 70%; % Decrease in Abeta 1-42 at 24 h^(a) or 25 h^(b) post dosing compared to own baseline [3, 6]: 69^(b) %
5 | CC1(S(C)(=O)=O)CCC(CF)(c2cc(NC(=O)c3ccc(C#N)cn3)ccc2F)N=C1N (centres unmarked) [Compound 22] | 1.12 | 78 | 5.25 | – | 1.15 | inhibition in vivo at 0.08 mg/kg ([3]; single dose 0.08 mg/kg): 50%; % Decrease in Abeta 1-42 at 24 h^(a) or 25 h^(b) post dosing compared to own baseline ([3]; single dose 0.08 mg/kg, 24 h post dosing (a)): 54^(a) %; % Decrease in Abeta 1-42 at 49 h post dosing compared to own baseline ([3]; single dose 0.31 mg/kg): 71%
6 | C[C@@]1(c2cc(NC(=O)c3ccc(F)cn3)ccc2F)CC[C@@](CF)(S(C)(=O)=O)C(N)=N1 [Compound 26] | 14.8 | – | 11 | 4.07 | 5.25 | –
7 | COc1cnc(C(=O)Nc2ccc(F)c([C@@]3(C)N=C(N)[C@](C)(C#N)C[C@]3(C)F)c2)cn1 [Compound 27] | 41.7 | – | 389 | 16.2 | 17.4 | –
8 | COc1cnc(C(=O)Nc2ccc(F)c([C@@]3(C)N=C(N)[C@@](C)(C#N)C[C@]3(C)F)c2)cn1 [Compound 28] | 1150 | – | > 10000 | 501 | 550 | –
9 | CC[C@]1(S(C)(=O)=O)CC[C@@](CF)(c2cc(NC(=O)c3ccc(F)cn3)ccc2F)N=C1N [Compound 29a] | 871 | – | 776 | 182 | 851 | –
10 | CCC1(S(=O)(=O)CC)CCC(CF)(c2cc(NC(=O)c3ccc(F)cn3)ccc2F)N=C1N (centres unmarked) [Compound 30] | 15.8 | – | 24.5 | 13.5 | 15.8 | –
11 | CCS(=O)(=O)C1(C)CCC(CF)(c2cc(NC(=O)c3ccc(F)cn3)ccc2F)N=C1N (centres unmarked) [Compound 31] | 1.7 | 31 | 2.63 | 1.78 | 1.91 | –
12 | CC1(S(C)(=O)=O)CCC(CF)(c2cc(NC(=O)c3cnc(OC(F)F)cn3)ccc2F)N=C1N (centres unmarked) [Compound 32] | 1.05 | 76 | 11.5 | 0.309 | 0.398 | –
13 | CC1(S(C)(=O)=O)CCC(CF)(c2cc(NC(=O)c3cnc(OCC(F)F)cn3)ccc2F)N=C1N (centres unmarked) [Compound 35] | 3.72 | – | 44.7 | 2.82 | 3.09 | –
14 | CC1(S(C)(=O)=O)CCC(CF)(c2cc(NC(=O)c3ncc(OC(F)F)cn3)ccc2F)N=C1N (centres unmarked) [Compound 36] | 4.27 | – | 28.2 | 4.37 | 4.37 | –
15 | CC1(S(C)(=O)=O)CCC(CF)(c2cc(NC(=O)c3cnc(OCC(F)(F)F)cn3)ccc2F)N=C1N (centres unmarked) [Compound 39] | 1.29 | 53 | 25.1 | 2.14 | 1.38 | % Decrease in Abeta 1-42 at 24 h^(a) or 25 h^(b) post dosing compared to own baseline [3, 6]: 44^(b) %
16 | C[C@@]1(S(C)(=O)=O)CC[C@@](CF)(c2cc(NC(=O)c3cnc(OCF)cn3)ccc2F)N=C1N [Compound 41] | 2.19 | 78 | 16.6 | – | 1.62 | inhibition in vivo at 0.16 mg/kg ([3]; single dose 0.16 mg/kg): 71%; inhibition in vivo at 1.25 mg/kg ([3]; single dose 1.25 mg/kg): 89%; % Decrease in Abeta 1-42 at 24 h^(a) or 25 h^(b) post dosing compared to own baseline ([3]; single dose 0.16 mg/kg, 25 h post dosing (b)): 26^(b) %; % Decrease in Abeta 1-42 at 24 h^(a) or 25 h^(b) post dosing compared to own baseline [3, 6]: 49^(b) %; % Decrease in Abeta 1-42 at 49 h post dosing compared to own baseline ([3]; single dose 1.25 mg/kg): 41%
